Measurements from ChEMBL document CHEMBL1201862, “PubChem BioAssay data set” (2004).
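Grown in 96-well plates, cells were treated for 48 hours with each compound at five concentrations. Insufficient inhibition: endpoint recorded as highest concentration tested. GI50 = concentration required for 50% inhibition of growth.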 The source made the active and inactive calls. Rule as the data show it: active = GI50 up to about 1.1 µM and inactive = higher.

How the values were obtained:
Assay in all cases: inhibition of tumour cell growth, NCI panel, 48 h
[1] = test system: OVCAR-8
[2] = test system: HT-29
[3] = test system: IGROV-1
[4] = test system: HOP-92
[5] = test system: OVCAR-5
[6] = test system: TK-10
[7] = test system: MOLT-4
[8] = test system: OVCAR-4
[9] = test system: U-251
[10] = test system: SK-MEL-28
[11] = test system: CCRF-CEM
[12] = test system: SK-MEL-5
[13] = test system: HL-60
[14] = test system: NCI-H522
[15] = test system: UACC-257
[16] = test system: UACC-62
[17] = test system: DMS-273
[18] = test system: SW-620
[19] = test system: A549
[20] = test system: NCI-H226
[21] = test system: KM-20L2
[22] = test system: SF-268
[23] = test system: ACHN
[24] = test system: RPMI-8226
[25] = test system: LXFL 529
[26] = test system: HCT-15
[27] = test system: RXF 393
[28] = test system: HCC 2998
[29] = test system: OVCAR-3
[30] = test system: SN12C
[31] = test system: COLO 205
[32] = test system: SF-539
[33] = test system: SK-OV-3
[34] = test system: XF498
[35] = test system: K562
[36] = test system: NCI-H23
[37] = test system: M19-MEL
[38] = test system: SF-295
[39] = test system: UO-31
[40] = test system: DMS-114
[41] = test system: HOP-62
[42] = test system: DLD-1
[43] = test system: CAKI-1
[44] = test system: M14
[45] = test system: SNB-75
[46] = test system: HCT-116
[47] = test system: 786-0
[48] = test system: SR
[49] = test system: LOX IMVI
[50] = test system: NCI-H460
[51] = test system: SNB-19
[52] = test system: SNB-78
[53] = test system: Malme-3M
[54] = test system: KM12
[55] = test system: A498
[56] = test system: EKVX
[57] = test system: SK-MEL-2

For `CC1=CC(=O)C(=O)C2=C1OC1(C2)C(C)CCC2C3(C)CCC(O)C(C)(C)C3CCC21C` (configuration not stated), the GI50 [1] was 19.5 µM (inactive), the GI50 [2] was 20.6 µM (inactive) and the GI50 [3] was 17.6 µM (inactive). The GI50 [4] was 17.3 µM (inactive), the GI50 [5] was 18.2 µM (inactive) and the GI50 [6] was 18.8 µM (inactive). The GI50 [7] was 17.1 µM (inactive), the GI50 [8] was 17.2 µM (inactive) and the GI50 [9] was 14.6 µM (inactive). For the same compound, the GI50 [10] was 20.5 µM (inactive), the GI50 [11] was 14 µM (inactive) and the GI50 [12] was 18 µM (inactive). For the same compound, the GI50 [13] was 2.22 µM (inactive), the GI50 [14] was 15.2 µM (inactive) and the GI50 [15] was 18.9 µM (inactive). The GI50 [16] was 15.8 µM (inactive), the GI50 [17] was 24.9 µM (inactive) and the GI50 [18] was 22.1 µM (inactive). The GI50 [19] was 33.3 µM (inactive), the GI50 [20] was 18.2 µM (inactive) and the GI50 [21] was 18.7 µM (inactive). For the same compound, the GI50 [22] was 26.4 µM (inactive), the GI50 [23] was 16.9 µM (inactive) and the GI50 [24] was 23.6 µM (inactive). The GI50 [25] was 15.5 µM (inactive), the GI50 [26] was 19.4 µM and the GI50 [27] was 15.3 µM (inactive). For the same compound, the GI50 [28] was 19 µM (inactive), the GI50 [29] was 18.6 µM (inactive) and the GI50 [30] was > 100 µM (inactive). For the same compound, the GI50 [31] was 16.3 µM (inactive), the GI50 [32] was > 100 µM (inactive) and the GI50 [33] was 29 µM (inactive). For the same compound, the GI50 [34] was 18.2 µM (inactive), the GI50 [35] was 17 µM (inactive) and the GI50 [36] was 15.8 µM (inactive). The GI50 [37] was 18.4 µM (inactive), the GI50 [38] was 15.7 µM (inactive) and the GI50 [39] was 18.4 µM (inactive). For the same compound, the GI50 [40] was 14.9 µM (inactive), the GI50 [41] was 19.2 µM (inactive) and the GI50 [42] was 20.1 µM (inactive). For the same compound, the GI50 [43] was 17.5 µM (inactive), the GI50 [44] was 18.8 µM (inactive) and the GI50 [45] was 48.4 µM (inactive). For the same compound, the GI50 [46] was 15.3 µM (inactive), the GI50 [47] was 17.4 µM (inactive) and the GI50 [48] was 23.8 µM (inactive). The GI50 [49] was 16.7 µM (inactive), the GI50 [50] was 17.5 µM (inactive) and the GI50 [51] was 16.8 µM (inactive). The GI50 [52] was 22.4 µM (inactive), the GI50 [53] was 19.8 µM (inactive) and the GI50 [54] was 15.7 µM (inactive).

With `CCCCN/C(=N/C#N)NCc1ccccc1` the GI50 [55] was > 100 µM (inactive), the GI50 [1] was > 100 µM (inactive) and the GI50 [2] was > 100 µM (inactive). The GI50 [3] was > 100 µM (inactive), the GI50 [4] was > 100 µM (inactive) and the GI50 [5] was > 100 µM (inactive). The GI50 [6] was > 100 µM (inactive), the GI50 [7] was > 100 µM (inactive) and the GI50 [8] was > 100 µM (inactive). The GI50 [9] was > 100 µM (inactive), the GI50 [10] was > 100 µM (inactive) and the GI50 [11] was > 100 µM (inactive). For the same compound, the GI50 [12] was > 100 µM (inactive), the GI50 [13] was > 100 µM (inactive) and the GI50 [14] was > 100 µM (inactive). The GI50 [16] was > 100 µM (inactive), the GI50 [17] was > 100 µM (inactive) and the GI50 [18] was > 100 µM (inactive). The GI50 [19] was > 100 µM (inactive), the GI50 [20] was > 100 µM (inactive) and the GI50 [21] was > 100 µM (inactive). For the same compound, the GI50 [22] was > 100 µM (inactive), the GI50 [23] was > 100 µM (inactive) and the GI50 [24] was > 100 µM (inactive). For the same compound, the GI50 [25] was > 100 µM (inactive), the GI50 [26] was greater than 100 µM and the GI50 [28] was 88.5 µM (inactive). The GI50 [29] was > 100 µM (inactive), the GI50 [30] was > 100 µM (inactive) and the GI50 [31] was > 100 µM (inactive). For the same compound, the GI50 [32] was > 100 µM (inactive), the GI50 [33] was > 100 µM (inactive) and the GI50 [34] was > 100 µM (inactive). The GI50 [56] was > 100 µM (inactive), the GI50 [36] was > 100 µM (inactive) and the GI50 [37] was > 100 µM (inactive). For the same compound, the GI50 [38] was > 100 µM (inactive), the GI50 [57] was > 100 µM (inactive) and the GI50 [39] was > 100 µM (inactive). For the same compound, the GI50 [41] was > 100 µM (inactive), the GI50 [42] was > 100 µM (inactive) and the GI50 [43] was > 100 µM (inactive). For the same compound, the GI50 [44] was > 100 µM (inactive), the GI50 [45] was 42.8 µM (inactive) and the GI50 [46] was > 100 µM (inactive). For the same compound, the GI50 [47] was > 100 µM (inactive), the GI50 [48] was > 100 µM (inactive) and the GI50 [49] was > 100 µM (inactive). The GI50 [50] was > 100 µM (inactive), the GI50 [51] was > 100 µM (inactive) and the GI50 [52] was > 100 µM (inactive). For the same compound, the GI50 [53] was > 100 µM (inactive) and the GI50 [54] was > 100 µM (inactive).
